# ChEMBL document CHEMBL1124428, “In vitro metabolic transformations of vinblastine: oxidations catalyzed by peroxidase” (J Med Chem, 1989)
# Test: Inhibitory concentration against human T-cell leukemic cell line ([…]) in vitro
# Assay type: functional
row,IC50,SMILES
1,0.1 µg/mL,CC[C@]1(O)C[C@@H]2CN(CCc3c([nH]c4ccccc34)[C@@](C(=O)OC)(c3cc4c(cc3OC)N(C)[C@H]3[C@@](O)(C(=O)OC)[C@H](OC(C)=O)[C@]5(CC)C=CCN6CC[C@]43[C@@H]65)C2)C1 [VINBLASTINE]
2,7.7 µg/mL,CCC(=O)C[C@@H]1CN(C=O)CCc2c([nH]c3ccccc23)[C@@](C(=O)OC)(c2cc3c(cc2OC)N(C)[C@H]2[C@](O)(C(=O)OC)[C@H](OC(C)=O)[C@]4(CC)C=CCN5CC[C@]32[C@@H]54)C1 [CATHARININE]
3,0.025 µg/mL,CC[C@]1(O)C[C@H]2CN(CCc3c([nH]c4ccccc34)[C@@](C(=O)OC)(c3cc4c(cc3OC)N(C=O)[C@H]3[C@@](O)(C(=O)OC)[C@H](OC(C)=O)[C@]5(CC)C=CCN6CC[C@]43[C@@H]65)C2)C1 [VINCRISTINE]
4,0.4 µg/mL,CC[C@]12CN3CCc4c([nH]c5ccccc45)[C@@](C(=O)OC)(c4cc5c(cc4OC)N(C)[C@H]4[C@@](O)(C(=O)OC)[C@H](OC(C)=O)[C@]6(CC)C=CCN7CC[C@]54[C@@H]76)C[C@@H](C3)[C@H]1O2.CC[C@]12CN3CCc4c([nH]c5ccccc45)[C@@](C(=O)OC)(c4cc5c(cc4OC)N(C)[C@H]4[C@@](O)(C(=O)OC)[C@H](OC(C)=O)[C@]6(CC)C=CCN7CC[C@]54[C@@H]76)C[C@@H](C3)[C@H]1O2.O=S(=O)(O)O [VINLEUROSINE SULFATE]
